Experimental data: paper PMC6930223 (Scientific Reports, 2019)

Target: hERG1a/1b current (Homo sapiens, UniProt Q12809)
Experimental: All working solutions were sterile-filtered, stored at −20 °C and thawed to room temperature before use.
Prior to electrophysiology study, the HEK293-hERG1a/1b cells were first grown in complete medium without selection antibiotics for 6 days. Approximately 5.0 × 10^5 cells were then plated onto an uncoated 96-mm cell culture dish for a maximum of 3 days. […] The cell suspension was then transferred into a 15-ml polypropylene tube and centrifuged at 100 × g for 3 min. Subsequently, the cell pellet was resuspended in extracellular solution to obtain a final density of 2 × 10^6–3 × 10^6 cells/ml and incubated on ice for 20 min to allow cell recovery. The electrophysiology studies were performed using NPC®-1 chips (Nanion Technologies, Germany) and Port-a-Patch system (Nanion Technologies, Germany) following manufacturer’s instructions, within the next 2 h. For characterization and determination of the hERG1a/1b current inhibition, a series of voltage protocols were applied as published previously.
The hERG1a/1b current was recorded in cells achieving whole-cell configuration. Briefly, a single cell was first held at −80 mV, the theoretical cardiac resting membrane potential, on the aperture of the NPC-1 chip (Nanion Technologies, Germany). To characterize the I-V relationship, the cell was depolarized to test potentials ranging from −60 mV to +50 mV for 4 s in […], followed by a 5-s step to −50 mV before returning to −80mV.
To determine the pharmacological effects of the HEK293-hERG1a/1b cells, the cells were perfused with test compound solutions using an external perfusion system. […] The mean of six successive Itail was recorded for each test concentration. Four independent experiments were conducted to derive the dose-response curve.

With mitragynine the “Hill coefficient (h)” value (dose-response fit of hERG1a/1b tail current inhibition) was 0.61 and the IC50 (read-out: IC50 of hERG1a/1b current inhibition, peak tail current, step pulse protocol, HEK293-hERG1a/1b cells, four independent experiments) was 333 nM.
